For assay [1], the system named is MCC13 cells (VN-MCC). The assay can be described thus: qHTS cell viability (CellTiter-Glo, 72 h; primary and follow-up small molecule screen). It is filed as cell-based, human. (Quantitative high-throughput screening tests each substance at several concentrations.)
Assay [2] has as its system VP-MCC cell lines (WAGA, MKL-1, MKL-2). The assay can be described thus: qHTS cell viability, VP-MCC cell lines as a group (mean AUC, VP.MCC.avg). It is filed as cell-based, human.
The test system of assay [3] is MCC26 cells (VN-MCC). Nature of the assay: qHTS cell viability (CellTiter-Glo, 72 h; primary and follow-up small molecule screen). It counts as cell-based, human.
The subject of assay [4] is CRL-7250 cells. The assay can be described thus: qHTS cell viability (CellTiter-Glo, 72 h; primary screen), control cell line. It is filed as cell-based.
Assay [5] concerns MKL-1 cells (VP-MCC). The assay can be described thus: qHTS cell viability (CellTiter-Glo, 72 h; primary and follow-up small molecule screen). It is filed as cell-based, human.
Assay [6] concerns HACAT cells. Nature of the assay: qHTS cell viability (CellTiter-Glo, 72 h; primary screen), control cell line. It is filed as cell-based, human.
Assay [7] relates to control cell lines (HACAT, HEK293T, CRL-7250, NIH-3T3). The assay can be described thus: qHTS cell viability, control cell lines as a group (mean AUC, Control.avg). It is filed as cell-based.
The subject of assay [8] is VN-MCC cell lines (MCC13, MCC26, UISO). Nature of the assay: qHTS cell viability, VN-MCC cell lines as a group (mean AUC, VN.MCC.avg). It is filed as cell-based, human.
The test system of assay [9] is HEK293T cells. Nature of the assay: qHTS cell viability (CellTiter-Glo, 72 h; primary screen), control cell line. It is filed as cell-based, human.
Assay [10] deals with six MCC cell lines and four control cell lines. Nature of the assay: qHTS cell viability, all 10 cell lines screened. It counts as cell-based.
The subject of assay [11] is NIH-3T3 cells. The assay can be described thus: qHTS cell viability (CellTiter-Glo, 72 h; primary screen), control cell line. It is filed as cell-based, mouse.
Assay [12] deals with MCC cell lines (WAGA, MKL-1, MKL-2, MCC13, MCC26, UISO). Nature of the assay: qHTS cell viability, all six MCC cell lines as a group (mean AUC, MCC.avg). It counts as cell-based, human.
The test system of assay [13] is MKL-2 cells (VP-MCC). The assay can be described thus: qHTS cell viability (CellTiter-Glo, 72 h; primary and follow-up small molecule screen). It is filed as cell-based, human.
Assay [14] has as its system WAGA cells (VP-MCC). Described as above. It counts as cell-based, human.
Assay [15] deals with UISO cells (VN-MCC). The description is as above. It counts as cell-based, human.
Setting [16] is: MIPE library, 11-point DRC, sheet S2E.
The mark [17] stands for this setting: MIPE library, 11-point DRC, control cell line, sheet S2E.

Where two headings read alike, the source gives them in different places.

On to `CCNC(=O)Nc1ccc2ncc(Nc3ccc(C)cc3)nc2n1` [D-106669], for which the MCC13_AUC in assay [1] (setting [16]) is on record as 484.886. The compound further came in with a Control-VP-MCC in [2] (MIPE library, Control AUC minus VP-MCC AUC (therapeutic window), sheet S2E) of 60.3261. This compound also showed a VP-MCC_Avg_AUC in assay [2] (MIPE library, mean AUC of VP-MCC cell lines, sheet S2E) of 410.488. The MCC26_AUC in assay [3] (setting [16]) came out at 446.547. Further, in [4] (setting [17]), the CRL7250_AUC was 461.458. Further, the MKL1_AUC in assay [5] (setting [16]) is on record as 400.108. In assay [6] (setting [17]), the HACAT_AUC is listed as 474.569. Moreover, the Control_Avg_AUC in [7] (MIPE library, mean AUC of control cell lines, sheet S2E) was 470.814. The same compound registered a Control-VN-MCC in assay [8] (MIPE library, Control AUC minus VN-MCC AUC (therapeutic window), sheet S2E) of 41.7531. The compound also yielded a VN-MCC_Avg_AUC in [8] (MIPE library, mean AUC of VN-MCC cell lines, sheet S2E) of 429.061. In addition, the HEK293T_AUC in assay [9] (setting [17]) is reported as 479.506. This compound also registered a Control-MCC in [10] (MIPE library, Control AUC minus MCC AUC (therapeutic window), sheet S2E) of 51.0396. This compound had an NIH3T3_AUC in [11] (setting [17]) of 467.724. In assay [12] (MIPE library, mean AUC of six MCC cell lines, sheet S2E), this compound came in with an MCC_Avg_AUC of 419.775. Also, in [13] (setting [16]), the MKL2_AUC was found to be 431.031. In assay [14] (setting [16]), this compound yielded a WAGA_AUC of 400.326. The compound further displayed a UISO_AUC in assay [15] (setting [16]) of 355.75.
For the compound `C[C@H](CN1CCOCC1)C(C(=O)N1CCCC1)(c1ccccc1)c1ccccc1.O=C(O)C(O)C(O)C(=O)O` [Dextromoramide tartrate], the MCC13_AUC in [1] is given as 446.289. In [2], this compound showed a Control-VP-MCC of 71.9259 and a VP-MCC_Avg_AUC of 390.87. The compound further gave an MCC26_AUC in assay [3] of 445.292. Besides, the CRL7250_AUC in assay [4] is listed as 471.896. This compound also yielded an MKL1_AUC in assay [5] of 389.502. The same compound returned an HACAT_AUC in [6] of 472.266. Besides, the Control_Avg_AUC in [7] stood at 462.795. Moreover, in [8], the Control-VN-MCC came out at 17.1819 and the VN-MCC_Avg_AUC came to 445.614. This compound showed an HEK293T_AUC in assay [9] of 429.542. The same compound yielded a Control-MCC in assay [10] of 44.5539. Also, in [11], the NIH3T3_AUC is 477.478. This compound displayed an MCC_Avg_AUC in assay [12] of 418.242. Moreover, the MKL2_AUC in [13] was 383.165. This compound showed a WAGA_AUC in assay [14] of 399.942. In [15], this compound gave a UISO_AUC of 445.259.
As for `CC[N+](CC)(CC)CCOC(=O)C(C1CCCC1)C1CCCC1` [Diponium bromide], the MCC13_AUC in [1] (NPC library, qHTS dose-response AUC, MCC13) is given as 522.801; in assay [1] (area under the dose-response curve, MCC13 cells, AUC<450 = reduced viability), 522.801. This compound gave a VP-MCC_Avg_AUC in [2] (NPC library, mean AUC of VP-MCC cell lines) of 429.684. In [2] (NPC library, therapeutic window: Control avg AUC minus VP-MCC avg AUC), this compound gave a Control-VP-MCC of 53.0478. Also, the MCC26_AUC in assay [3] (NPC library, qHTS dose-response AUC, MCC26) amounted to 499.996; in [3] (area under the dose-response curve, MCC26 cells, AUC<450 = reduced viability) it was 499.996. Also, the CRL7250_AUC stood at 487.778 in [4] (NPC library, qHTS dose-response AUC, CRL7250 control) and 487.778 in [4] (area under the dose-response curve, CRL7250 control cells, AUC<450 = reduced viability). The MKL1_AUC in assay [5] (NPC library, qHTS dose-response AUC, MKL1) amounted to 427.875; in assay [5] (area under the dose-response curve, MKL-1 cells, AUC<450 = reduced viability), 427.875. Also, the HACAT_AUC amounted to 486.819 in assay [6] (NPC library, qHTS dose-response AUC, HACAT control) and 486.819 in assay [6] (area under the dose-response curve, HACAT control cells, AUC<450 = reduced viability). In addition, in [7] (NPC library, mean AUC of control cell lines), the Control_Avg_AUC came out at 482.732. In assay [8] (NPC library, mean AUC of VN-MCC cell lines), the VN-MCC_Avg_AUC is listed as 499.413. The compound further returned a Control-VN-MCC in assay [8] (NPC library, therapeutic window: Control avg AUC minus VN-MCC avg AUC) of -16.6818. Further, the HEK293T_AUC is 472.065 in assay [9] (NPC library, qHTS dose-response AUC, HEK293T control) and 472.065 in [9] (area under the dose-response curve, HEK293T control cells, AUC<450 = reduced viability). Moreover, the Control-MCC in assay [10] (NPC library, therapeutic window: Control avg AUC minus MCC avg AUC) is recorded as 18.183. Also, the NIH3T3_AUC is reported as 484.264 in assay [11] (NPC library, qHTS dose-response AUC, NIH3T3 control) and 484.264 in assay [11] (area under the dose-response curve, NIH3T3 control cells, AUC<450 = reduced viability). The compound also had an MCC_Avg_AUC in [12] (NPC library, mean AUC of six MCC cell lines) of 464.549. For the same compound, the MKL2_AUC came to 434.115 in assay [13] (NPC library, qHTS dose-response AUC, MKL2) and 434.115 in assay [13] (area under the dose-response curve, MKL-2 cells, AUC<450 = reduced viability). Also, the WAGA_AUC in [14] (NPC library, qHTS dose-response AUC, WAGA) is on record as 427.062; in assay [14] (area under the dose-response curve, WAGA cells, AUC<450 = reduced viability), 427.062. Also, the UISO_AUC was determined as 475.444 in [15] (NPC library, qHTS dose-response AUC, UISO) and 475.444 in assay [15] (area under the dose-response curve, UISO cells, AUC<450 = reduced viability).

The record behind these values is publication PMC11822212, “High-throughput screening identifies Aurora kinase B as a critical therapeutic target for Merkel cell carcinoma” (Nature Communications, 2025).
